Measurements published in US20010013317A1, “Medium for coloring live bait worms” (priority 1999, published 2001).
≈ marks a conversion by molar mass, not a printed value. Entries after “also recorded” stand apart in the source; their conditions may differ.

Experiments:
[1] = tested on: live bait worms; test: Coloring and viability of live bait worms kept in peat loam medium mixed with colorant (8 oz cup, 12 worms); type: in vivo; details: for Effectiveness as worm coloring agent (coloration of worms) / Worm viability / mortality: powdered colorant in peat loam, 8 oz cup, inspected at 24 hrs, 36 hrs, 3-4 weeks
From the text: The inventor conducted numerous experiments to determine the effectiveness of a number of color additives to color live bait worms.
Experimental procedure. Each powdered colorant was mixed with peat loam medium and added to an 8 oz cup containing 12 healthy and natural worms. Concentrations given as mg colorant per 8 oz cup containing about 120 g peat loam. Worms were inspected for color and viability 24 hrs., 36 hrs., and when still viable, 3-4 weeks later.

[2] = tested on: live bait worms; test: Incubation and storage of worms in bait cup topped with coloring medium; type: in vivo; details: 8-24 worms, 8 to 12 ounce cup, coloring medium 5 g colorant per kg, stored at 34° F. to 38° F.
Protocol: Alternatively, after the incubation, the above bulk colored worms can be divided into smaller amounts and stored in actual point-of-sale containers ready for use as bait by the end user rather than in bulk containers. For example, 8-24 of the worms previously colored in bulk as described above can be added to a normal 8 to 12 ounce Styrofoam, paper, or plastic bait cup and topped with the coloring medium (containing 5 g colorant D&C Yellow 8 per kg of the storage medium). When the container is capped with a lid and stored at 34° F. to 38° F., the worms will remain viable, and colored for about four to six weeks and are ready for immediate use as bait.
In another application of the process, the incubation and storage can be carried out in the same vessel. […]. In this case, the regular, uncolored, worms require an initial incubation period of about one week to lapsed before the worms acquire the desired color and intensity to be used as colored bait worms. The worms will then remain colored and viable in the bait cup of about four to six weeks. In both examples, the worms can be kept viable and colored indefinitely, if required, simply by changing the coloring medium once it has been consumed.

[3] = Solubility of colorant in water; details: at 25° C.
[4] = mg colorant per 8 oz cup containing about 120 g peat loam, 12 worms
[5] = 12 worms, listed as D&C Yellow No. 8

| SMILES | Effectiveness as worm coloring agent (coloration of worms) ([1]; 12 worms) | Worm viability / mortality ([1]; 12 worms) | Solubility in water [3] | further results |
| --- | --- | --- | --- | --- |
| O=C([O-])c1c(Cl)c(Cl)c(Cl)c(Cl)c1-c1c2cc(Br)c(=O)c(Br)c-2oc2c(Br)c([O-])c(Br)cc12.[Na+].[Na+] [D & C Red 28] | Worms become pinkish | mg. Increased mortality | – | Concentration range in which worms become colored [1, 4]: tration between 50-800 mg |
| O=C1OC2(c3ccc([O-])cc3Oc3cc([O-])ccc32)c2ccccc21.[Na+].[Na+] [D & C Yellow 8, uranine] | main bright Chartreuse | very healthy and viable | – | Time worms remain viable and colored in bait cup [2]: about four to six; Amount at which dye remains non-toxic to worms ([1]; bait cup containing 12 worms): about 2500 mg/8 ounce bait cup; Amount at which dye remains non-toxic, per worm ([1]; from 2500 mg/8 ounce cup with 12 worms): about 150 mg dye per worm; Concentration at which worms remain very healthy and viable [1, 4]: centration of >2500 mg.; Lowest concentration at which worms become and remain colored [1, 4]: ≤ 25 mg. Preferred range; Effectiveness as worm coloring agent (coloration of worms) [1, 5]: intense fluorescent chartreuse color; Worm viability / mortality [1, 5]: non-toxic to worms; also recorded: not detrimental to the viability of the worms |
| CCN(Cc1cccc(S(=O)(=O)[O-])c1)c1ccc(C(=C2C=CC(=[N+](CC)Cc3cccc(S(=O)(=O)[O-])c3)C=C2)c2ccccc2S(=O)(=O)[O-])cc1.[Na+].[Na+] [FD & C Blue 1] | main blue. Worms | viable if carefully | – | – |
| O=C1/C(=C2\Nc3ccc(S(=O)(=O)[O-])cc3C2=O)Nc2ccc(S(=O)(=O)[O-])cc21.[Na+].[Na+] [FD & C Blue 2] | No colorization. Worms | remain viable | 2 mg/mL | – |
| COc1cc(S(=O)(=O)[O-])c(C)cc1N=Nc1c(O)ccc2cc(S(=O)(=O)[O-])ccc12.[Na+].[Na+] [FD & C Red 40] | No coloration. Worms | remain viable | 22 mg/mL | – |
| O=C(O)c1nn(-c2ccc(S(=O)(=O)O)cc2)c(O)c1N=Nc1ccc(S(=O)(=O)O)cc1 [FD & C Yellow 5] | Color not retained. | Worms remain viable | 20 mg/mL (≈ 42.7 mM) | – |
| O=S(=O)([O-])c1ccc(N=Nc2c(O)ccc3cc(S(=O)(=O)[O-])ccc23)cc1.[Na+].[Na+] [FD & C Yellow 6] | No coloration. Worms | remain viable | – | – |
